Reference: US7803930B2, “Antisense modulation of apolipoprotein B-expression” (Isis Pharmaceuticals, Inc., priority 2002, dated 2010)

Experiments:
[1] = Steatosis following long-term treatment (6, 12 and 20 weeks) in high-fat fed mice: histology and liver triglyceride content; type: in vivo, mouse; settings: high fat fed C57Bl/6 mice, 25 mg/kg i.p. twice weekly
Method: Quantitation of liver triglyceride content is also used to assess steatosis. Tissue triglyceride levels are measured using a Triglyceride GPO Assay (Sigma-Aldrich, St. Louis, Mo.).
Male C57Bl/6 mice were treated with twice weekly intraperitoneal injections of 25 mg/kg ISIS 147764 (SEQ ID NO: 109) or 25 mg/kg ISIS 141923 (SEQ ID NO: 858) for 6, 12 and 20 weeks. Saline treated animals served as controls. Each treatment group contained 4 animals. Animals were sacrificed at 6, 12 and 20 weeks and liver tissue was procured for histological analysis and measurement of tissue triglyeride content.

apolipoprotein B mRNA = test: Lean vs high fat fed C57BL/6 mice (Example 20): target mRNA levels in liver; type: in vivo, mouse; settings: 50 mg/kg i.p. every three days, six weeks
Method: (§1) Male C57BL/6 mice were divided into two matched groups; (1) wild-type control animals (lean animals) and (2) animals receiving a high fat diet (60% kcal fat). Control animals received saline treatment and were maintained on a normal rodent diet. After overnight fasting, mice from each group were dosed intraperitoneally every three days with saline or 50 mg/kg ISIS 147764 (SEQ ID No: 109) for six weeks. At study termination and forty eight hours after the final injections, animals were sacrificed and evaluated for target mRNA levels in liver, cholesterol and triglyceride levels, liver enzyme levels and serum glucose levels.

[2] = tested on: liver gene expression profile; lipid metabolism genes; test: Microarray and real-time PCR analysis of liver gene expression in lean versus high-fat fed mice (Example 65); type: in vivo, mouse; settings: high fat fed C57Bl/6 mice
Method: Male C57Bl/6 mice were divided into the following groups, consisting of 5 animals each: (1) mice on a lean diet, injected with saline (lean control); (2) mice on a high fat diet; (3) mice on a high fat diet injected with 50 mg/kg of the control oligonucleotide 141923 (SEQ ID NO: 858); (4) mice on a high fat diet given 20 mg/kg atorvastatin calcium (Lipitor®, Pfizer Inc.); (5) mice on a high fat diet injected with 10, 25 or 50 mg/kg ISIS 147764 (SEQ ID NO: 109). Saline and oligonucleotide treatments were administered intraperitoneally twice weekly for 6 weeks. Atorvastatin was administered daily for 6 weeks. At study termination, liver samples were isolated from each animal and RNA was isolated for Northern blot qualitative assessment, DNA microarray and quantitative real-time PCR. Northern blot assessment and quantitative real-time PCR were performed as described by other examples herein.
For DNA microarray analysis, hybridization samples were prepared from 10 μg of total RNA isolated from each mouse liver according to the Affymetrix Expression Analysis Technical Manual (Affymetrix, Inc., Santa Clara, Calif.). […] Signal values for each probe set were calculated using the Affymetrix Microarray Suite v5.0 software (Affymetrix, Inc., Santa Clara, Calif.). […]

[3] = Lean vs high fat fed C57BL/6 mice (Example 20): cholesterol, lipoprotein, triglyceride, liver enzyme and serum glucose levels; type: in vivo, mouse; settings: 50 mg/kg i.p. every three days, six weeks
Method: as §1

[4] = tested on: human apolipoprotein B protein; test: Transgenic mice dosing study (Example 52): ELISA of human apolipoprotein B protein in liver; type: in vivo, human transgene in mouse
[5] = C57BL/6NTac-TgN(APOB100) transgenic mice (Example 47): liver enzyme, cholesterol, LDL-cholesterol and triglyceride levels; type: in vivo, mouse; settings: C57BL/6NTac-TgN(APOB100) mice, 25 mg/kg
[6] = tested on: mouse apolipoprotein B mRNA; test: Transgenic mice dosing study (Example 52): mouse apolipoprotein B mRNA in liver; type: in vivo; settings: for % Inhibition, mouse apolipoprotein B mRNA: liver, 12 weeks
Method: A long-term study of inhibition of human apolipoprotein B by ISIS 301012 in C57BL/6NTac-TgN(APOB100) mice (Taconic, Germantown, N.Y.) was conducted for a 3 month period. Mice were dosed intraperitoneally twice a week with 10 or 25 mg/kg ISIS 301012 (SEQ ID No: 247) for 12 weeks. Saline-injected animals served as controls. Each treatment group comprised 4 animals.
The study was terminated forty eight hours after the final injections in the eighth week of treatment, when animals were sacrificed and evaluated for target mRNA levels in liver, apolipoprotein B protein levels in liver and serum cholesterol and liver enzyme levels. In addition, the expression of endogenous mouse apolipoprotein B levels in liver was measured to evaluate any effects of ISIS 301012 on mouse apolipoprotein B mRNA expression.
Human and mouse apolipoprotein B mRNA levels in livers of animals treated for 12 weeks were measured by real-time PCR as described herein. Each result represents the average of data from 4 animals.

[7] = Lean-control group, C57BL/6 mice

Substance: GTCCCTGAAGATGTCAATGC (2'-MOE gapmer, further chemistry not given here) [ISIS 147764]
- liver tissue triglyceride content vs saline treated animals ([1]; 6, 12 and 20 weeks): no significant differences
- steatosis vs saline control animals (histology) ([1]; 12 and 20 weeks): reduced
- Percent Change mRNA (apolipoprotein B mRNA; High Fat Group): −87%
- Percent Change mRNA (apolipoprotein B mRNA; Lean-control group): −73%
- mRNA expression of lipid metabolism genes (hepatic lipase, fatty acid synthase, ABCD2, FABP2, stearol CoA desaturase-1, HMG CoA reductase), real-time PCR [2]: reduction in mRNA expression
- liver gene expression profile (microarray) ([2]; 10, 25 or 50 mg/kg i.p. twice weekly, 6 weeks): drives the gene expression profile in high fat fed mice to the profile observed in lean mice
- Percent Change CHOL ([3]; High Fat Group, C57BL/6 mice): −67%
- Percent Change GLUC ([3]; High Fat Group, C57BL/6 mice): −28%
- Percent Change Lipoproteins HDL ([3]; High Fat Group, C57BL/6 mice): −65%
- Percent Change Lipoproteins LDL ([3]; High Fat Group, C57BL/6 mice): −87%
- Percent Change CHOL [3, 7]: −63%
- Percent Change Lipoproteins HDL [3, 7]: −44%
- Percent Change Lipoproteins LDL [3, 7]: −64%
- Percent Change TRIG [3, 7]: −34%
- changes in liver enzyme levels ([3]; lean and high fat C57BL/6 mice): No significant changes

Substance: ISIS 301012: SEQ ID NO: 247, antisense oligonucleotide targeted to human apolipoprotein B (antisense GCCTCAGTCTGCTTCGCACC; chemistry not given here)
- reduction in human apolipoprotein B protein in liver (ELISA) ([4]; 10 mg/kg): 80%
- reduction in human apolipoprotein B protein in liver (ELISA) ([4]; 20 mg/kg (so in the source)): 82%
- LDL-cholesterol levels ([5]; 2 weeks of treatment): 22 mg/dL
- LDL-cholesterol levels ([5]; 4 weeks of treatment): 17 mg/dL
- mouse liver apolipoprotein B mRNA ([6]; 12 weeks of treatment): unaffected
- % Inhibition, mouse apolipoprotein B mRNA ([6]; 10 mg/kg i.p. twice a week): 6%
- % Inhibition, mouse apolipoprotein B mRNA ([6]; 25 mg/kg i.p. twice a week): 6%
